Test results published in patent US6534283B1, “Method for treatment and prevention of physiological shock” (The Regents of the University of California, priority 1999, dated 2003).

Assays:
Human neutrophils (PMNs) = experiment: Neutrophil activation (pseudopod formation) by pancreatic homogenate prepared with protease inhibitors; type: cell-based; conditions: for ability of the homogenate to stimulate neutrophil activation: pancreas homogenized in the presence of protease inhibitor
Protocol: The organs were immediately washed in cold 0.25 M sucrose solution, homogenized in Krebs-Henseleit solution (1:3 w/v), and the homogenate was diluted (1:2 v/v Krebs-Henseleit), following the protocol established by Glen and Lefer (Circ. Res., 1971). This homogenate served as the stock solution for all experiments. Aliquots were heated for 2.5 hours at 38° C. with mild stirring and the supernatant collected after centrifugation at 500 g for 10 min. Incubation of tissue homogenates at 38° C. promotes enzymatic activity and enhances production of the cellular activation factors.
Neutrophils were isolated from venous blood collected from healthy human volunteers in heparinized vacutainer tubes and stored at 4° C. Human neutrophils (PMNs) were used in these studies after it was shown in pilot studies that the rat organ extracts stimulated activation of both human and rat neutrophils to a similar degree.
Neutrophil isolation was carried out using gravity sedimentation to remove erythrocytes and centrifugation through a Percoll gradient. Isolated neutrophils were resuspended in PBS to achieve a count of 10^6 neutrophils/ml. 100 μl aliquots of suspended neutrophils were added to 100 μl of activating agent (e.g. tissue homogenate) or PBS as a control, and incubated for 10 minutes at 27° C. After incubation, 100 μl of 3% glutaraldehyde (Fisher Scientific, Fair Lawn, N.J.) was added to fix the cells. 100 μl of crystal violet in phosphate (pH: 7.4) buffer was added to label leukocyte nuclei for identification on wet mount preparations. Freely suspended neutrophils with pseudopodia were identified by their segmented nuclei and by the presence of cytoplasmic granules. One hundred neutrophils were counted per slide. Cells having pseudopod projections greater than about 1 μm were considered positive.
To determine if pancreatic homogenates could induce a “systemic response” in vitro, non-pancreatic tissues were incubated with substimulatory quantities of pancreatic homogenate (100 μl pancreatic homogenate/3 ml organ homogenate). […] As the pancreas produces a number of digestive enzymes, including proteases, a cocktail of trypsin and chymotrypsin was added to non-pancreatic tissue and the neutrophil activation assays were performed.

rats [1] = experiment: Shock induced by bolus injection of pancreatic homogenate, with or without ANGD infusion; type: in vivo, rat; conditions: one hour i.v. pretreatment 3.3 mg/kg body wt per hour, then pancreatic homogenate bolus
Protocol: Rats were cannulated via the femoral arteries and veins under general anesthesia (pentobarbital, 50 mg/kg i.m.) and saline, without or with ANGD, was infused to examine the response of the circulation after administration of pancreatic homogenate. The arterial catheter served to record mean arterial pressure (MAP) and heart rate. […] No heparin was injected other than that needed to maintain open catheters (10 U/ml Plasma-Lyte, Travenol Laboratory Inc., Deerfield, Ill.). After a one hour pretreatment, a bolus injection of filtered (0.78 μm vacuum filter, Millipore) stock pancreatic homogenate was administered (2 ml). The extent to which pancreatic homogenate induced hypotension and circulatory shock, both in the presence and absence of ANGD, was examined.

rats [2] = experiment: Splanchnic ischemia/reperfusion shock with perfusion of the lumen of the small intestine; type: in vivo, rat
Protocol: (§1) The small intestine of rats was perfused at a constant flow rate (4.0 ml/min) with 45 ml of rat intestinal fluid supplemented with 5 ml of 5% glucose (IF) or 50 ml of saline with 0.1% glucose (SAL) or with ANDG at a final concentration of 0.2 mg/ml. The perfusate was recirculated continuously throughout the entire procedure. After 15 min of intestinal perfusion, the animals were subjected to […]. of splanchnic ischemia, which was confirmed by cyanotic organ discoloration and loss of the pressure pulsation in the mesentery.
Arterial and portal venous blood (0.3 ml each) were sampled before ischemia, after 90 min of ischemia, and 30, 60, and 120 min postreperfusion. The samples were analyzed for leukocyte count and activation based on crystal violet staining. In the preischemic period, the leukocyte counts were the same in all three groups. In the IF And SAL groups, the leukocyte count in arterial blood started to decrease after ischemia and reached its lowest value 120 min after reperfusion. […] Similarly, ANGD was able to inhibit the activation of circulating neutrophils (15.0±1.6%) as compared to both IF (23.3±1.0%, p<0.05) and SAL (25.0±1.6%, p<0.05) at 120 minutes post-perfusion.
Myeloperoxidase activity was used as a marker for assessment of leukocyte infiltration into the small intestine, liver, and lung. Tissue myeloperoxidase levels were determined by a spectrophotometric method. At 120 minutes of reperfusion, myeloperoxidase levels were increased in intestine (36.1±3.9 U/g to 309.3±51.0 U/g), liver (0.4±0.1 U/g to 2.6±0.3 U/g), and lung (29.0±4.4 U/g to 199.2±33.9 U/g). This is an early indicator of leukocyte infiltration and organ failure in shock.
Thickness of the intestinal mucosa was used as an indicator of damage to the intestine. A sample of small intestine was longitudinally dissected, fixed in 10% buffered formalin, and embedded in paraffin. Five-micrometer sections were made and stained with hematoxylin and eosin and examined at 200× magnification. Severity of intestinal injury was estimated by the length between the tip of the villi and the musculus mucosae, a measure of mucosal layer thickness. In each specimen, the measurement was made at 10 randomly selected locations and averaged. Intestinal perfusion of protease inhibitor served to maintain mucosal thickness and to reduce intestinal injury (IF 252.0±34.0 […]).
The level of edematous lung injury was assayed by a pulmonary wet/dry ratio. Lung lobes were harvested, wet weight was determined and samples were dried at 70° C. for 72 hours. The dried tissue was weighed, and the ratio of wet to dried weight was calculated. Edema was much greater in the IF (5.65±0.33) and SAL (4.88±0.39) groups as compared to the ANGD (3.66±0.27) group which was similar to non-shock controls.

serine protease = experiment: Serine protease activity of intestinal fluid during intestinal perfusion and splanchnic ischemia; type: in vivo, rat; conditions: intestinal perfusion 0.2 mg/ml
Protocol: as §1
The process of shock was monitored by a number of methods in various tissues throughout the body. Intestinal fluid was analyzed for serine protease activity. One milliliter of circulating fluid in the intestine was collected from the reservoir before ischemia and 90 min after ischemia. […] After 90 min of ischemia, the serine protease activity levels in the IF, SAL, and ANGD groups were 5.6±2.3×10^3 units/ml, 3.3±2.3×10^3 units/ml, and 1.2±0.2×10^3 units/ml, respectively. Intestinal perfusion with ANGD kept the serine protease activity lower than in the other two groups (p<0.05, SAL vs. ANGD; p<0.01 ANGD vs. IF and SAL groups).

| Structure (SMILES) | neutrophil activation (Human neutrophils (PMNs); pancreas homogenized in presence of inhibitor, untreated extract 59±10%) | ability of the homogenate to stimulate neutrophil activation (Human neutrophils (PMNs)) | death within the 60 minute post-injection observation period (rats [1]) | time for MAP and heart rate to return to normal levels (rats [1]) | myeloperoxidase activity in liver (rats [2]; 120 minutes of reperfusion, without inhibitor 2.6±0.3 U/g) | myeloperoxidase activity in lung (rats [2]; 120 minutes of reperfusion, without inhibitor 199.2±33.9 U/g) | myeloperoxidase activity in intestine (rats [2]; 120 minutes of reperfusion, without inhibitor 309.3±51.0 U/g) | activation of circulating neutrophils (rats [2]; 120 minutes post-perfusion, IF 23.3±1.0%, SAL 25.0±1.6%) | pulmonary wet/dry ratio (edematous lung injury) (rats [2]; IF 5.65±0.33, SAL 4.88±0.39) | leukopenia (leukocyte count in arterial blood) (rats [2]; intestinal perfusion 0.2 mg/ml, after ischemia up to 120 min after reperfusion) | mucosal thickness (tip of the villi to musculus mucosae) (rats [2]; small intestine, IF 252.0±34.0) | serine protease activity level in the intestine (serine protease; after 90 min of ischemia, IF 5.6±2.3×10^3, SAL 3.3±2.3×10^3) | serine protease activity level in the intestine (serine protease; before ischemia, IF=5.8±1.8×10^3, SAL=2.0±0.9×10^3) |
| --- | --- | --- | --- | --- | --- | --- | --- | --- | --- | --- | --- | --- | --- |
| N=C(N)c1ccc2cc(OC(=O)c3ccc(N=C(N)N)cc3)ccc2c1 [ANGD, 6-amidino-2napthyl p-guanidobenzoate dimethane-sulfate] | 9±12% | significantly decreased | none of these animals died | ≤ 20 min | 1.0±0.1 U/g | 87.0±13.4 U/g | 62.5±19.8 U/g | 15.0±1.6% | 3.66±0.27 | completely ameliorated leukopenia | 378 ± 38 µm | 1.2±0.2×10^3 units/ml | 1.2±0.1×10^3 units/ml |
| CCOC(=O)c1ccc(OC(=O)CCCCCN=C(N)N)cc1.CS(=O)(=O)O [FOY, gabaxalate mesilate] |  | significantly decreased |  |  |  |  |  |  |  |  |  |  |  |
| O=S(=O)(F)Cc1ccccc1 [PMSF, phenylmethylsulfonylfluoride] |  | significantly decreased |  |  |  |  |  |  |  |  |  |  |  |
